Data taken from patent US12350250B2, “Aggrelytes for treating ocular conditions” (The Regents of the University of Colorado, a Body Corporate, priority 2022, dated 2025).

Experiments:
mouse lenses [1] = test: Acetylated proteins in ex vivo treated mouse lenses (Western blot, Example 19); settings: 1 mM, 24 hours
Description: The lenses from Example 18 were homogenized using N2-bubbled 50 mM phosphate buffer, pH 7.4 (0.4 mL per lens), in a hand-held motorized homogenizer. The homogenate was centrifuged at 20,000×g for 20 minutes at 4° C. The resulting supernatant was collected, and its protein content was measured using BCA Protein Assay Kit using BSA as the standard. The soluble protein was subjected to 12% SDS-PAGE under denaturing conditions and the proteins were electrophoretically transferred to a nitrocellulose membrane and blocked with 5% nonfat dry milk. The membrane was then incubated with a monoclonal antibody against N-acetyllysine (AcK antibody @ 1:5,000 dilution; Cell Signaling Technology Catalog #9681S) for 16 hours, followed by horseradish peroxidase (HRP)-conjugated goat anti-mouse IgG (1:5,000 dilution; Cell Signaling Technology Catalog #7076S) for 1 hour. Chemiluminescence was detected using the Enhanced Chemiluminescence Detection Kit. The membrane was stained with Ponceau-S to visualize the proteins and normalize acetyllysine (AcK)-bearing protein to total protein load.

human lenses [2] = test: Stiffness of ex vivo human lenses (Example 22); settings: 250 μM, 48 hours, ex vivo human lenses (47-67 years)
Description: To test the effects of Aggrelyte-2 and Aggrelyte-2A on human lenses (age: 47-67 years), lenses were incubated in media containing freshly dissolved aggrelyte (250 μM) for 48 hours, with aggrelyte replacement after 24 hours. One lens from each donor pair was treated with aggrelyte, while the other was used as the control. After incubation, lens stiffness was measured, as described above in Example 20.

mouse lenses [3] = test: AcK in WS fraction of treated mouse lenses (LC-MS/MS); settings: 1 mM, 24 hours, vs untreated controls and Aggrelyte-2C (p<0.0001)
Description: (§1) Mouse and human lenses were treated with aggrelytes as described in Example 10. Water-soluble proteins from mouse and human lenses were obtained as described in Example 13. Effects of aggrelyte treatment on AcK-bearing proteins in the WS fractions were evaluated by LC-MS/MS analysis as described in Example 6.

mouse lenses [4] = test: AcK-bearing proteins in WS fraction of treated mouse lenses (Western blot); settings: 1 mM, 24 hours, vs untreated controls (p<0.01) and Aggrelyte-2C (p<0.001)
Description: Mouse and human lenses were treated with aggrelytes as described in Example 10. Water-soluble proteins from mouse and human lenses were obtained as described in Example 13. Effects of aggrelyte treatment on AcK-bearing proteins in the WS fractions were evaluated by Western blot analysis as described in Example 5. For Western blotting, 10-20 μg of protein from each lens sample was used and each sample was separately processed three times and analyzed.

human lenses [5] = test: AcK in WS cortical and nuclear fractions of treated human lenses (LC-MS/MS); settings: 1 mM, 72 h, vs untreated controls
Description: as §1

γD-crystallin (γDC) = biological target: T1, γD-crystallin (γDC) (Homo sapiens, UniProt P07320); test: AGE formation (CML, CEL) in glycated recombinant γD-crystallin; type: biochemical; settings: γDC 2 mg/mL pretreated with 1.25 mM aggrelyte-2 for 24 h, glycating mixture 5 days
T1 sequence (P07320 1-174): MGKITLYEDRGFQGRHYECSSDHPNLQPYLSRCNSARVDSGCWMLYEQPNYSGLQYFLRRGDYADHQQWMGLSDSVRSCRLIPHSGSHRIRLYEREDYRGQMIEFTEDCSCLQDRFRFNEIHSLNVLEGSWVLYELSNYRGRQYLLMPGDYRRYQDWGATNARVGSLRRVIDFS
Description: To investigate the effects of Aggrelyte-2 on advanced glycation end product (AGE) formation, human recombinant αAC (3 mg/mL) or γD-crystallin (γDC, 2 mg/mL) in PBS was treated with or without aggrelyte-2 (10 mM for αAC and 1.25 mM for γDC) for 24 h, dialyzed against 100 mM sodium phosphate buffer pH 7.4 for 16 h and incubated with or without a glycating mixture (2 mM ascorbate, 25 mM D-glucose and 250 μM methylglyoxal) in 100 mM sodium phosphate buffer pH 7.4 for 5 days (after adding 0.002% sodium azide) at 37° C. The incubated proteins were dialyzed against PBS for 16 h, treated with 100 mM sodium borohydride for 1 h at room temperature, and acid hydrolyzed. Two AGEs, N^−-carboxymethyllysine (CML) and N^□-carboxyethyllysine (CEL), were measured by LC-MS/MS as described above. Each sample was separately processed 3-4 times.

With `COC(=O)[C@H](CSC(C)=O)NC(C)=O` [Aggrelyte-2, N,S-diacetyl-L-cysteine methyl ester] the “density of acetyl-bearing proteins, fold increase compared to untreated control lenses” value (mouse lenses [1]) was 2 fold, the “effect on lens stiffness” value (human lenses [2]) was “no effect on stiffness” and the “AcK modifications in WS proteins (LC-MS/MS)” value (mouse lenses [3]) was “significantly higher AcK modifications”. For the same compound, the “AcK modifications in WS proteins (Western blot)” value (mouse lenses [4]) was “significantly higher AcK modifications”, the “AcK content, cortical protein fraction (LC-MS/MS)” value (human lenses [5]) was “Significantly higher (p<0.05)” and the “AcK, nuclear fraction (LC-MS/MS)” value (human lenses [5]) was “not statistically greater”. For the same compound, the “levels of both CML and CEL (AGEs) after glycation” value (γD-crystallin (γDC)) was “significantly reduced (p<0.0001)”.
